Test results reported in patent US11607420B2, “Formulation” (DSM IP ASSETS B.V., priority 2018, dated 2023).

Experiment: Absorption of aqueous solution after dissolving powder in water (riboflavin coloration/release)
Type: physicochemical
Settings: powder containing 10 mg riboflavin in 1000 ml water for 15 min; measured at 545 nm, spectrophotometer
Description: 20 mg of coated powder (containing 10 mg of Riboflavin) was dissolved in 1000 ml water for 15 min. Absorption of the solution was measured at 545 nm using a spectrophotometer (Genesys 20, thermo Scientific). Absorption of the solution was 0.065.
10 mg of riboflavin powder was dissolved in 1000 ml water for 15 min. Absorption of the solution was measured at 545 nm using a spectrophotometer (Genesys 20, thermo Scientific). Absorption of the solution was 0.386.
16.6 mg of coated powder (containing 10 mg of Riboflavin) was dissolved in 1000 ml water for 15 min. Absorption of the solution was measured at 545 nm using a spectrophotometer (Genesys 20, thermo Scientific). Absorption of the solution was 0.087.

Absorption of the solution: 0.386
Structure (SMILES): Cc1cc2nc3c(=O)[nH]c(=O)nc-3n(C[C@H](O)[C@H](O)[C@H](O)CO)c2cc1C [Comparison Example 2, riboflavin]
